Results taken from BindingDB's records for doi:10.1021/jm9804127 (Glaxo Wellcome Research and Development, 1999).
pEC50: −log10 of the molar value.

Biological target: not listed separately
Test: Ability to promote differentiation of C3H10T1/2 stem cells to adipocytes using lipogenesis assay mediated through activation of Peroxisome proliferator activated receptor gamma

Row | SMILES | pEC50
1 | CN(CCOc1ccc(CC(Nc2ccccc2C(O)c2ccccc2)C(=O)O)cc1)c1ccccn1 (configuration not stated) | 5.88
2 | CC1(COc2ccc(C[C@H](Nc3ccccc3C(=O)c3ccccc3)C(=O)O)cc2)CCCCC1 | 5.94
3 | O=C(c1ccccc1)c1ccccc1N[C@@H](Cc1ccc(OCc2ccccc2)cc1)C(=O)O | 5.82
4 | CN(CCOc1ccc(CC(Oc2ccccc2C(=O)c2ccccc2)C(=O)O)cc1)c1nc2ccccc2o1 (configuration not stated) | 5.94
5 | CN(CCOc1ccc(CC(Nc2ccccc2S(=O)(=O)c2ccccc2)C(=O)O)cc1)c1nc2ccccc2o1 (configuration not stated) | 5.66

Next, values leading:

Row | pEC50 | SMILES
6 | 6.24 | CN(CCOc1ccc(CC(Nc2cccc3c2C(=O)c2ccccc2-3)C(=O)O)cc1)c1nc2ccccc2o1 (configuration not stated)
7 | 6.30 | CCc1ccc(CCOc2ccc(C[C@H](Nc3ccccc3C(=O)c3ccccc3)C(=O)O)cc2)nc1
8 | 6.33 | CN(CCOc1ccc(CC(Nc2ccccc2Oc2ccccc2)C(=O)O)cc1)c1nc2ccccc2o1 (configuration not stated)
9 | 6.44 | Cc1c(C)c2c(c(C)c1O)CCC(C)(COc1ccc(C[C@H](Nc3ccccc3C(=O)c3ccccc3)C(=O)O)cc1)O2 (some centres not stated)
10 | 7.33 | CN(CCOc1ccc(CC(Nc2ccccc2C(=O)Cc2ccccc2)C(=O)O)cc1)c1nc2ccccc2o1 (configuration not stated)
11 | 8.36 | CN(CCOc1ccc(C[C@H](Nc2ccccc2C(=O)c2ccccc2)C(=O)O)cc1)c1nc2ccccc2o1

Biological target: T1, Peroxisome proliferator-activated receptor gamma (Homo sapiens, UniProt P37231)
T1 sequence (P37231 whole entry): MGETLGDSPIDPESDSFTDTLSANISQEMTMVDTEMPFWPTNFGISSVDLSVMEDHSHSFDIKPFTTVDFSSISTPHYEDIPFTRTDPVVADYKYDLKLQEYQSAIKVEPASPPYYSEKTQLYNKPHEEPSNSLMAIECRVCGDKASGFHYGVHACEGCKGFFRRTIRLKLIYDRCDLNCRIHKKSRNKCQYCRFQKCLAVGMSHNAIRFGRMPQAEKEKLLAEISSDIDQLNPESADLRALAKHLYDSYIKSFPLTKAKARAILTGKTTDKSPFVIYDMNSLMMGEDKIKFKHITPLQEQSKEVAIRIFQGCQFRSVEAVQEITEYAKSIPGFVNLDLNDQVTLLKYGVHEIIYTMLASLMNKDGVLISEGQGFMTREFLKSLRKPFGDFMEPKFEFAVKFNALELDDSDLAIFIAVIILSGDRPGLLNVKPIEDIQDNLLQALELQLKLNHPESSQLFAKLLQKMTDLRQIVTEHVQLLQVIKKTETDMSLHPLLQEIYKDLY
Test: Ability to promote differentiation of C3H10T1/2 stem cells to adipocytes using lipogenesis assay mediated through activation of Peroxisome proliferator activated receptor gamma

Row | pEC50 | SMILES
12 | 5.91 | CN(CCOc1ccc(CC(Nc2ccccc2C(N=N)c2ccccc2)C(=O)O)cc1)c1ccccn1 (configuration not stated)
